Experimental data as given in patent US12144815B2, “Use of aprepitant for treating Alzheimer's disease” (Hoth Therapeutics, Inc., priority 2021, dated 2024).

Assays:
[1] = system: brain interstitial fluid (ISF) Aβ; experiment: In vivo microdialysis of brain interstitial fluid (ISF) Aβ with Aβ sandwich ELISA; details: APP/PS1+/− mice, 40 mg/kg oral gavage
Procedure: In vivo microdialysis was utilized to measure the basal concentration of ISF Aβ in each mouse, followed by administration via oral gavage of 40 mg/kg dose of aprepitant or vehicle (corn oil) and continued measurement of Aβ over 24 hours.
Three-four month old APP/PS1^+/− mice were implanted with unilateral guide cannula above the hippocampus followed by insertion of microdialysis probes (see, for example, In Vivo AβMicrodialysis of Example 7). Each animal recovered for 3 days between guide cannula implantation and start of microdialysis. Littermate females and males were separated randomly into each treatment group. Throughout each microdialysis study, mice were housed in special RaTurn caging systems to provide freedom of movement and ad lib food and water while the microdialysis equipment was attached. […]
Following drug administration, ISF was measured every 60 minutes for 24 hours. […] ISF APβ was immediately measured at the end of each study by Aβ sandwich ELISA. […]
In Vivo Aβ Microdialysis. […] Samples were collected every 60 or 90 minutes into a refrigerated fraction collector (Univentor Limited) in polypropylene tubes and assessed for […] by sandwich ELISA. […]
Aβ Sandwich ELISA. ISF Aβx-40 levels were measured using sandwich ELISAs as described (Hettinger et al., 2018). […]

APP/PS1 mice = experiment: Morris Water Maze test of spatial learning and memory; type: in vivo; details: 3 weeks oral treatment
Procedure: A Morris Water Maze test was used to evaluate spatial learning and memory after 3 weeks treatment with oral aprepitant or vehicle in APP/PS1 or wild type (WT) mice.
Animal Model. All experiment protocols using animals were performed ethically and in accordance with the guidelines established by the Institutional Animal Care and Use Committee at Washington University. APPswe/PS1DE9 hemizygous mice (Jackson Laboratory, RRID: MMRRC_034829.JAX) (Savonenko et al., 2003) were bred to wild type C3H/B6 mice and aged the APP/PS1^+/− offspring to 2-3.5 months for microdialysis experiments or aged to 9 months for behavioral testing. Males and females were included in each group; aprepitant treated mice n=20 (11 males, 9 females), Vehicle treated mice […] for microdialysis experiments. […]
Morris water maze (MWM) test. […] The PVC escape platform measured 11.5 cm in diameter. A digital video camera connected to a PC computer and the computer software program ANY-maze (Stoelting Co., Wood Dale, IL) tracked the swimming pathway of the mouse to the escape platform and quantified path length, latency to find escape platform, and swimming speeds. […]

SMILES: C[C@H](O[C@@H]1OCCN(Cc2n[nH]c(=O)[nH]2)[C@H]1c1ccc(F)cc1)c1cc(C(F)(F)F)cc(C(F)(F)F)c1 [aprepitant]
- average ISF Aβ levels post gavage compared to vehicle treated mice ([1]; Bonferroni post hoc, p=0.0002): significantly lower
- ISF Aβ levels, change from baseline (within group) ([1]; hippocampal ISF measured over 24 hours, p <0.0001, vehicle (corn oil) mice did not decrease (p=0.4003)): significantly decreased from their baseline
- spatial memory for the platform location (time spent in the target quadrant, probe trial) (APP/PS1 mice; compared to vehicle-treated APP/PS1 mice, preliminary data): trend for improved memory
- spatial learning (path length, learning trials) (APP/PS1 mice; n=4 vs vehicle n=3, preliminary data, trend): improved spatial learning
